Test results published in PubChem BioAssay AID1963865 (Molecular Pharmacology Branch, DTP, NCI, 2024).

Test system: KRAS PDC multicell spheroid viability
Experiment: Anticancer human tumor 825966-067-R-J1-PDC patient-derived colon carcinoma cell line growth inhibition [KRAS2]
Settings: for viability, T/C: stronger effect = lower value
How it was run: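 KRAS-mutant tumor cells were grown as spheroids with HUVEC endothelial cells and human MSCs as stroma. Targeted agents were tested alone and with KRAS pathway inhibitors. Doses started at or near clinical Cmax, or 10 microM, descending half-log.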

[1] = curve of first compound, second compound 0.0316 µM
[2] = curve of first compound, second compound 0.1 µM
[3] = curve of first compound, second compound 0.316 µM
[4] = curve of first compound, second compound 1 µM
[5] = curve of first compound, second compound 3.16 µM
[6] = second compound 0.0316 µM, first compound 0.0316 µM
[7] = second compound 0.0316 µM, first compound 0.1 µM
[8] = second compound 0.1 µM, first compound 0.01 µM
[9] = second compound 0.1 µM, first compound 0.0316 µM
[10] = second compound 0.1 µM, first compound 0.1 µM
[11] = second compound 0.316 µM, first compound 0.01 µM
[12] = second compound 0.316 µM, first compound 0.0316 µM
[13] = second compound 0.316 µM, first compound 0.1 µM
[14] = second compound 1 µM, first compound 0.01 µM
[15] = second compound 1 µM, first compound 0.0316 µM
[16] = second compound 1 µM, first compound 0.1 µM
[17] = second compound 3.16 µM, first compound 0.01 µM
[18] = second compound 3.16 µM, first compound 0.0316 µM
[19] = second compound 3.16 µM, first compound 0.1 µM
[20] = curve of first compound, second compound 10 µM
[21] = second compound 0.1 µM, first compound 0.316 µM
[22] = second compound 0.1 µM, first compound 1 µM
[23] = second compound 0.1 µM, first compound 3.16 µM
[24] = second compound 0.1 µM, first compound 10 µM
[25] = second compound 0.316 µM, first compound 0.316 µM
[26] = second compound 0.316 µM, first compound 1 µM
[27] = second compound 0.316 µM, first compound 3.16 µM
[28] = second compound 0.316 µM, first compound 10 µM
[29] = second compound 1 µM, first compound 0.316 µM
[30] = second compound 1 µM, first compound 1 µM
[31] = second compound 1 µM, first compound 3.16 µM
[32] = second compound 1 µM, first compound 10 µM
[33] = second compound 3.16 µM, first compound 0.316 µM
[34] = second compound 3.16 µM, first compound 1 µM
[35] = second compound 3.16 µM, first compound 3.16 µM
[36] = second compound 3.16 µM, first compound 10 µM
[37] = second compound 10 µM, first compound 0.0316 µM
[38] = second compound 10 µM, first compound 0.1 µM
[39] = second compound 10 µM, first compound 0.316 µM
[40] = second compound 10 µM, first compound 1 µM
[41] = second compound 10 µM, first compound 3.16 µM
[42] = second compound 10 µM, first compound 10 µM
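Also: spheroids exposed to compounds for 7 days.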
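For viability, T/C in this document: 100% = DMSO vehicle control viability.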

## Cn1ncnc1[C@H]1c2n[nH]c(=O)c3cc(F)cc(c23)N[C@@H]1c1ccc(F)cc1 + C=CC(=O)N1CCN(c2nc(OCC3CCCN3C)nc3c2CCN(c2cccc4cccc(C)c24)C3)CC1CC#N
[1]
  IC50: > 100 nM
[2]
  IC50: > 100 nM
[3]
  IC50: > 100 nM
[4]
  IC50: > 100 nM
[5]
  IC50: > 100 nM
Second compound 0.0316 µM, first compound 0.000316 µM
  viability, T/C: 108%
Second compound 0.0316 µM, first compound 0.001 µM
  viability, T/C: 108%
Second compound 0.0316 µM, first compound 0.00316 µM
  viability, T/C: 91.5%
Second compound 0.0316 µM, first compound 0.01 µM
  viability, T/C: 78%
[6]
  viability, T/C: 85.2%
[7]
  viability, T/C: 82.5%
Second compound 0.1 µM, first compound 0.000316 µM
  viability, T/C: 86.3%
Second compound 0.1 µM, first compound 0.001 µM
  viability, T/C: 106%
Second compound 0.1 µM, first compound 0.00316 µM
  viability, T/C: 119%
[8]
  viability, T/C: 80%
[9]
  viability, T/C: 81.5%
[10]
  viability, T/C: 77%
Second compound 0.316 µM, first compound 0.000316 µM
  viability, T/C: 120%
Second compound 0.316 µM, first compound 0.001 µM
  viability, T/C: 103%
Second compound 0.316 µM, first compound 0.00316 µM
  viability, T/C: 133%
[11]
  viability, T/C: 88.1%
[12]
  viability, T/C: 91.4%
[13]
  viability, T/C: 82.5%
Second compound 1 µM, first compound 0.000316 µM
  viability, T/C: 127%
Second compound 1 µM, first compound 0.001 µM
  viability, T/C: 103%
Second compound 1 µM, first compound 0.00316 µM
  viability, T/C: 98.6%
[14]
  viability, T/C: 91.3%
[15]
  viability, T/C: 112%
[16]
  viability, T/C: 98.9%
Second compound 3.16 µM, first compound 0.000316 µM
  viability, T/C: 86.5%
Second compound 3.16 µM, first compound 0.001 µM
  viability, T/C: 123%
Second compound 3.16 µM, first compound 0.00316 µM
  viability, T/C: 112%
[17]
  viability, T/C: 120%
[18]
  viability, T/C: 84.6%
[19]
  viability, T/C: 102%

## O=C(c1cc(Cc2n[nH]c(=O)c3ccccc23)ccc1F)N1CCN(C(=O)C2CC2)CC1 + COc1cc2nc(C)nc(NC(C)c3cc(N)cc(C(F)(F)F)c3)c2cc1OC1CCOC1
[2]
  IC50: > 10000 nM
[3]
  IC50: > 10000 nM
[4]
  IC50: > 10000 nM
[5]
  IC50: > 10000 nM
[20]
  IC50: > 10000 nM
[9]
  viability, T/C: 84.2%
[10]
  viability, T/C: 91.5%
[21]
  viability, T/C: 92.3%
[22]
  viability, T/C: 77.2%
[23]
  viability, T/C: 69.3%
[24]
  viability, T/C: 75%
[12]
  viability, T/C: 80.3%
[13]
  viability, T/C: 79.2%
[25]
  viability, T/C: 95.5%
[26]
  viability, T/C: 80.5%
[27]
  viability, T/C: 98.9%
[28]
  viability, T/C: 95.9%
[15]
  viability, T/C: 79.4%
[16]
  viability, T/C: 81.5%
[29]
  viability, T/C: 69.1%
[30]
  viability, T/C: 87%
[31]
  viability, T/C: 68.1%
[32]
  viability, T/C: 89.6%
[18]
  viability, T/C: 104%
[19]
  viability, T/C: 115%
[33]
  viability, T/C: 117%
[34]
  viability, T/C: 113%
[35]
  viability, T/C: 96.8%
[36]
  viability, T/C: 88.8%
[37]
  viability, T/C: 115%
[38]
  viability, T/C: 121%
[39]
  viability, T/C: 122%
[40]
  viability, T/C: 117%
[41]
  viability, T/C: 72%
[42]
  viability, T/C: 89.5%

## CC(C)NCC(C(=O)N1CCN(c2ncnc3c2C(C)CC3O)CC1)c1ccc(Cl)cc1 (centres undefined) + COc1cc2nc(C)nc(NC(C)c3cc(N)cc(C(F)(F)F)c3)c2cc1OC1CCOC1
[2]
  IC50: 2500 nM
[3]
  IC50: 2450 nM
[4]
  IC50: 1740 nM
[5]
  IC50: 1880 nM
[20]
  IC50: < 31.6 nM
[9]
  viability, T/C: 122%
[10]
  viability, T/C: 113%
[21]
  viability, T/C: 148%
[22]
  viability, T/C: 97.1%
[23]
  viability, T/C: 39.4%
[24]
  viability, T/C: 11.2%
[12]
  viability, T/C: 103%
[13]
  viability, T/C: 129%
[25]
  viability, T/C: 122%
[26]
  viability, T/C: 130%
[27]
  viability, T/C: 29.7%
[28]
  viability, T/C: 8.59%
[15]
  viability, T/C: 114%
[16]
  viability, T/C: 128%
[29]
  viability, T/C: 151%
[30]
  viability, T/C: 75.7%
[31]
  viability, T/C: 37.4%
[32]
  viability, T/C: 7.58%
[18]
  viability, T/C: 111%
[19]
  viability, T/C: 125%
[33]
  viability, T/C: 104%
[34]
  viability, T/C: 97.7%
[35]
  viability, T/C: 10.9%
[36]
  viability, T/C: 5.94%
[37]
  viability, T/C: 22.4%
[38]
  viability, T/C: 5.84%
[39]
  viability, T/C: 3.69%
[40]
  viability, T/C: 1.56%
[41]
  viability, T/C: 2.14%
[42]
  viability, T/C: 3.53%

## COC(=O)c1ccc2c(C(=Nc3ccc(N(C)C(=O)CN4CCN(C)CC4)cc3)c3ccccc3)c(O)[nH]c2c1
Compound 0.0316 µM
  viability, T/C: 93.7% [middle of 5 runs]
Compound 0.1 µM
  viability, T/C: 90.7% [middle of 5 runs]
Compound 0.316 µM
  viability, T/C: 92.2% [middle of 5 runs]
Compound 3.16 µM
  viability, T/C: 0.53% [middle of 5 runs]
Compound 10 µM
  viability, T/C: 0.29% [middle of 4 runs]
Curve of compound
  IC50: 1.24 µM [middle of 5 runs]

## O=C(c1cc(Cc2n[nH]c(=O)c3ccccc23)ccc1F)N1CCN(C(=O)C2CC2)CC1
Compound 0.1 µM
  viability, T/C: 88.5% [middle of 5 runs]
Compound 3.16 µM
  viability, T/C: 79.6% [middle of 5 runs]
Curve of compound
  IC50: > 10000 nM

## Cn1nccc1Nc1nccc(-c2cc3c(s2)C(C)(C)N(CCN2CCOCC2)C3=O)n1 + C=CC(=O)N1CCN(c2nc(OCC3CCCN3C)nc3c2CCN(c2cccc4cccc(C)c24)C3)CC1CC#N
[1]
  IC50: > 10000 nM
[2]
  IC50: > 10000 nM
[3]
  IC50: > 10000 nM
[4]
  IC50: > 10000 nM
[5]
  IC50: 674 nM
[6]
  viability, T/C: 108%
[7]
  viability, T/C: 91.1%
Second compound 0.0316 µM, first compound 0.316 µM
  viability, T/C: 121%
Second compound 0.0316 µM, first compound 1 µM
  viability, T/C: 108%
Second compound 0.0316 µM, first compound 3.16 µM
  viability, T/C: 95.3%
Second compound 0.0316 µM, first compound 10 µM
  viability, T/C: 68.5%
[9]
  viability, T/C: 84%
[10]
  viability, T/C: 91.6%
[21]
  viability, T/C: 106%
[22]
  viability, T/C: 100%
[23]
  viability, T/C: 73.4%
[24]
  viability, T/C: 79.8%
[12]
  viability, T/C: 72.2%
[13]
  viability, T/C: 110%
[25]
  viability, T/C: 125%
[26]
  viability, T/C: 93.7%
[27]
  viability, T/C: 75.9%
[28]
  viability, T/C: 61.2%
[15]
  viability, T/C: 85.9%
[16]
  viability, T/C: 96.1%
[29]
  viability, T/C: 127%
[30]
  viability, T/C: 96%
[31]
  viability, T/C: 64.8%
[32]
  viability, T/C: 56.4%
[18]
  viability, T/C: 84.9%
[19]
  viability, T/C: 76.4%
[33]
  viability, T/C: 104%
[34]
  viability, T/C: 4.64%
[35]
  viability, T/C: 27.8%
[36]
  viability, T/C: 57.8%

## CC1COCCN1c1cc(-c2ccnn2C)c2ccnc(-c3ccn[nH]3)c2n1 (centres undefined) + CNCc1ccccc1-c1csc(C(C)Nc2nc(C)nc3cc(OC)c(OC)cc23)c1
[2]
  IC50: 244 nM
[3]
  IC50: 278 nM
[4]
  IC50: 122 nM
[5]
  IC50: < 10 nM
[20]
  IC50: < 10 nM
[8]
  viability, T/C: 111%
[9]
  viability, T/C: 129%
[10]
  viability, T/C: 89.2%
[21]
  viability, T/C: 34.4%
[22]
  viability, T/C: 44.4%
[23]
  viability, T/C: 37.3%
[11]
  viability, T/C: 132%
[12]
  viability, T/C: 131%
[13]
  viability, T/C: 75.8%
[25]
  viability, T/C: 54%
[26]
  viability, T/C: 49.5%
[27]
  viability, T/C: 30.3%
[14]
  viability, T/C: 104%
[15]
  viability, T/C: 91.5%
[16]
  viability, T/C: 56.8%
[29]
  viability, T/C: 18.3%
[30]
  viability, T/C: 14.2%
[31]
  viability, T/C: 2.54%
[17]
  viability, T/C: 29.4%
[18]
  viability, T/C: 8.68%
[19]
  viability, T/C: 1.56%
[33]
  viability, T/C: 2.53%
[34]
  viability, T/C: 0.56%
[35]
  viability, T/C: 0.39%
Second compound 10 µM, first compound 0.01 µM
  viability, T/C: 0.18%
[37]
  viability, T/C: 0.15%
[38]
  viability, T/C: 0.12%
[39]
  viability, T/C: 0.52%
[40]
  viability, T/C: 0.12%
[41]
  viability, T/C: 0.19%
